Measurements taken from ChEMBL document CHEMBL1201862, “PubChem BioAssay data set” (2004).
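Method: 48-hour compound exposure of cells in 96-well plates, five concentrations, linear interpolation of endpoints. At the GI50, growth is halved.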 Calls of active or inactive are those of the source. Cut-off read from the data, not from the text of the source: active = GI50 up to about 1.1 µM and inactive = higher.

Columns and labels:
Assay in all cases: NCI-60 cell line screen, 48 h
M19-MEL = system: M19-MEL
HCT-116 = system: HCT-116
A498 = system: A498
OVCAR-8 = system: OVCAR-8
SR = system: SR
UACC-62 = system: UACC-62
OVCAR-4 = system: OVCAR-4
HT-29 = system: HT-29
UACC-257 = system: UACC-257
SK-OV-3 = system: SK-OV-3
OVCAR-3 = system: OVCAR-3
M14 = system: M14
COLO 205 = system: COLO 205
CCRF-CEM = system: CCRF-CEM
NCI-H23 = system: NCI-H23
NCI-H522 = system: NCI-H522
OVCAR-5 = system: OVCAR-5

Row | Compound | GI50 (M19-MEL) | GI50 (HCT-116) | GI50 (A498) | GI50 (OVCAR-8) | GI50 (SR) | GI50 (UACC-62) | GI50 (OVCAR-4) | GI50 (HT-29) | GI50 (UACC-257) | GI50 (SK-OV-3) | GI50 (OVCAR-3) | GI50 (M14) | GI50 (COLO 205) | GI50 (CCRF-CEM) | GI50 (NCI-H23) | GI50 (NCI-H522) | GI50 (OVCAR-5)
1 | CCC(C)(C)C(=O)O[C@H]1C[C@@H](C)C=C2C=C[C@H](C)[C@H](CC[C@@H]3C[C@@H](O)CC(=O)O3)[C@H]21 [SIMVASTATIN] | 1.56 µM (inactive) | 3.27 µM (inactive) | 0.902 µM (active) | 1.37 µM (inactive) | 13.2 µM (inactive) | 0.469 µM (active) | > 30 µM (inactive) | 6.85 µM (inactive) | 17.3 µM (inactive) | 1.72 µM (inactive) | 23.1 µM (inactive) | 2.25 µM (inactive) | 12.1 µM (inactive) | 11.3 µM (inactive) | 0.982 µM (active) |  | 
2 | CC1(C)COC(c2cccnc2/C=N/O)=N1 | > 100 µM (inactive) | > 100 µM (inactive) | > 100 µM (inactive) | > 100 µM (inactive) | > 100 µM (inactive) | > 100 µM (inactive) | > 100 µM (inactive) | > 100 µM (inactive) | > 100 µM (inactive) | > 100 µM (inactive) | > 100 µM (inactive) | > 100 µM (inactive) | > 100 µM (inactive) | > 100 µM (inactive) | > 100 µM (inactive) | > 100 µM (inactive) | > 100 µM (inactive)
3 | C=CCC12CCC(=O)C=C1CCC1(C2)OCCO1 (centres undefined) | > 100 µM (inactive) | > 100 µM (inactive) | > 100 µM (inactive) | > 100 µM (inactive) | > 100 µM (inactive) | > 100 µM (inactive) | > 100 µM (inactive) |  | > 100 µM (inactive) | > 100 µM (inactive) | > 100 µM (inactive) | > 100 µM (inactive) | > 100 µM (inactive) | 53.1 µM (inactive) |  | > 100 µM (inactive) | 
4 | Oc1ccc2ccccc2c1/N=N/c1ccc(F)cc1 | > 100 µM (inactive) | > 100 µM (inactive) | > 100 µM (inactive) | > 100 µM (inactive) | > 100 µM (inactive) | > 100 µM (inactive) | > 100 µM (inactive) | > 100 µM (inactive) |  | > 100 µM (inactive) | > 100 µM (inactive) | > 100 µM (inactive) | > 100 µM (inactive) | > 100 µM (inactive) | > 100 µM (inactive) | > 100 µM (inactive) | > 100 µM (inactive)
5 | N#CC1CC(c2ccccc2)Nc2cc(Cl)ccc2N1 (centres undefined) | 44.8 µM (inactive) | 19.3 µM (inactive) | > 100 µM (inactive) | 33 µM (inactive) | 14.3 µM (inactive) | 31.6 µM (inactive) | 40.5 µM (inactive) | 24.4 µM (inactive) | > 81.7 µM (inactive) | > 100 µM (inactive) | 19.3 µM (inactive) | 24.3 µM (inactive) | 7.11 µM (inactive) | 3.18 µM (inactive) | 31.6 µM (inactive) | 3.68 µM (inactive) | > 100 µM (inactive)
6 | N#Cc1cc([N+](=O)[O-])ccc1NC(=O)C(=O)C(C(=O)/C=C/c1ccccc1)C1OC(=O)c2ccccc21 (centres undefined) | > 100 µM (inactive) | > 100 µM (inactive) | > 100 µM (inactive) | > 100 µM (inactive) | 1.69 µM (inactive) | > 100 µM (inactive) | > 100 µM (inactive) | > 100 µM (inactive) | > 100 µM (inactive) | > 100 µM (inactive) | > 100 µM (inactive) | > 100 µM (inactive) | > 100 µM (inactive) | 8.65 µM (inactive) | > 100 µM (inactive) | > 100 µM (inactive) | > 100 µM (inactive)
7 | Cc1cc(N(CCC#N)CCC#N)ccc1/C=C1N=C(/C=C\c2ccccc2)N(NC(=O)CC(=O)Nc2ccccc2Cl)C\1=O | > 100 µM (inactive) | > 100 µM (inactive) | > 100 µM (inactive) | > 100 µM (inactive) |  | > 100 µM (inactive) | > 100 µM (inactive) | > 100 µM (inactive) | > 100 µM (inactive) | > 100 µM (inactive) | > 100 µM (inactive) | > 100 µM (inactive) | > 100 µM (inactive) | > 100 µM (inactive) | > 100 µM (inactive) | > 100 µM (inactive) | > 100 µM (inactive)
8 | O=C(O)[C@@H]1OCCOCCO[C@@H](C(=O)O)[C@H](C(=O)O)OCCOCCO[C@H]1C(=O)O | > 100 µM (inactive) | > 67.8 µM (inactive) | > 100 µM (inactive) | > 100 µM (inactive) | 19.1 µM (inactive) | > 100 µM (inactive) | > 100 µM (inactive) | > 100 µM (inactive) | > 100 µM (inactive) | > 100 µM (inactive) | > 100 µM (inactive) | > 100 µM (inactive) | > 61.7 µM (inactive) | > 51.2 µM (inactive) | > 100 µM (inactive) | > 100 µM (inactive) | > 100 µM (inactive)
